Like-named read-outs stand apart in the source and are kept apart here.
Assays:
[1] = amide bond
in vitro [2] = type: in vitro ADME, mouse; settings: both, CD-1, mouse, plasma, 10 µM
[3] = Metabolic stability assay, CD-1 mouse microsomes; type: in vitro ADME; settings: both, CD-1, mouse, microsomes, 10 µM
in vitro [4] = type: in vitro ADME, human; settings: human, plasma, 10 µM
[5] = Metabolic stability assay, human microsomes; type: in vitro ADME; settings: both, human, microsomes, 10 µM
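Wherever Plasma Stability 240 min mouse [% remain.] is given: sodium citrate stabilized mouse plasma, parent compound quantified by HPLC/MS/MS relative to its peak area at time zero, run in triplicate.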
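Wherever Plasma Stability T½ [min] mouse is given: sodium citrate stabilized mouse plasma, parent compound quantified by HPLC/MS/MS relative to its peak area at time zero, run in triplicate.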

`C[C@H]1C(=O)NCCC(=O)N2C[C@H](NC(=O)c3ccccc3)C[C@H]2COc2cccc(c2)C(=O)N1C` gave a ring closure, yield of all isomers ([1]; from *CNC(=O)CCCOc1cc(OC)c(CN(C(=O)c2ccccc2)[C@@H]2C[C@@H](COc3cccc(C(=O)N(C)[C@@H](C)C(=O)O)c3)N(C(=O)CCN)C2)c(OC)c1, FDPP, i-Pr2NEt, DMF, 67.0 mM, 30.0 h, 7 steps) of 16%.

In the case of `CN1C[C@H](NC(=O)OCc2ccccc2)C(=O)N(C)CC(=O)N2C[C@@H](NC(=O)OC(C)(C)C)C[C@H]2COc2cncc(c2)C1=O` [Ex. 272, benzyl N-[(4S,6S,13S)-6-[(tert-butoxycarbonyl)amino]-11,15-dimethyl-9,12,16-trioxo-2-oxa-8,11,15,19-tetraazatricyclo[15.3.1.0^4,8]henicosa-1(21),17,19-trien-13-yl]carbamate], the Plasma Stability T½ [min] mouse (in vitro [2]) is reported as greater than 240 min, the “Plasma Stability 240 min mouse [% remain.]” value (in vitro [2]; 4 h) is reported as 92 % remain and the ring closure, yield of all isomers ([1]; from CNCC(=O)N1C[C@@H](NC(=O)OC(C)(C)C)C[C@H]1COc1cncc(C(=O)N(C)C[C@H](NC(=O)OCc2ccccc2)C(=O)O)c1, T3P, i-Pr2NEt, CH2Cl2, 9.75 mM) is reported as 38%. The Metabolic Stability T½ [min] mouse [3] was greater than 60 min, the “Metabolic Stability 60 min mouse [% remain.]” value ([3]; 1 h) was 81 % remain and the Plasma Stability T½ [min] hum (in vitro [4]) was greater than 240 min. The “Plasma Stability 240 min hum [% remain.]” value (in vitro [4]; 4 h) was 95 % remain, the Metabolic Stability T½ [min] hum [5] was greater than 60 min and the “Metabolic Stability 60 min hum [% remain.]” value ([5]; 1 h) was 65 % remain.

Work on `CN1CCC[C@H](NC(=O)OCc2ccccc2)C(=O)N2C[C@@H](Oc3ccccc3)C[C@H]2COc2cccc(c2)C1=O` yielded a ring closure, yield of all isomers ([1]; from CN(CCC[C@H](NC(=O)OCc1ccccc1)C(=O)O)C(=O)c1cccc(OC[C@@H]2C[C@H](Oc3ccccc3)CN2)c1, FDPP, DMF, 5.7 mM, 25.0 °C, 20.0 h) of 63%.

With `CN1CC(=O)N2CCN(C(=O)OC(C)(C)C)C[C@@H]2COc2ccc(F)cc2C(=O)N(C)[C@@H](C(=O)OCc2ccccc2)CCC1=O` the ring closure, yield of all isomers ([1]; from CNCC(=O)N1CCN(C(=O)OC(C)(C)C)C[C@@H]1COc1ccc(F)cc1C(=O)N(C)[C@H](CCC(=O)O)C(=O)OCc1ccccc1, T3P / i-Pr2NEt, CH2Cl2, 10.4 mM) was 96%.

Work on `CN1CCC[C@H](NC(=O)OCc2ccccc2)C(=O)N2C[C@@H](OCc3ccc(Br)cc3)C[C@H]2CSc2cccc(c2)C1=O` yielded a ring closure, yield of all isomers ([1]; from CN(CCC[C@H](NC(=O)OCc1ccccc1)C(=O)O)C(=O)c1cccc(SC[C@@H]2C[C@H](OCc3ccc(Br)cc3)CN2)c1, T3P, CH2Cl2, 1.96 mM, 25.0 °C, 3.0 h) of 79%.

`CN1CCC[C@H](NC(=O)OCc2ccccc2)C(=O)N2C[C@@H](OCc3ccc(Br)cc3)C[C@H]2COc2cccc(c2)C1=O` showed a ring closure, yield of all isomers ([1]; from CN(CCC[C@H](NC(=O)OCc1ccccc1)C(=O)O)C(=O)c1cccc(OC[C@@H]2C[C@H](OCc3ccc(Br)cc3)CN2)c1, T3P, CH2Cl2, 5.5 mM, 25.0 °C, 20.0 h) of 57%.

`CN1C(=O)c2cc(F)ccc2OC[C@@H]2C[C@H](NC(=O)OCC[Si](C)(C)C)CN2C(=O)CC[C@H]1C(=O)OCc1ccccc1` gave a ring closure, yield of all isomers ([1]; from CN(C(=O)c1cc(F)ccc1OC[C@@H]1C[C@H](NC(=O)OCC[Si](C)(C)C)CN1)[C@@H](CCC(=O)O)C(=O)OCc1ccccc1, T3P, CH2Cl2, 10.0 mM, 25.0 °C, 20.0 h) of 61%.

With `CN1C(=O)c2cccc(c2)OC[C@@H]2C[C@H](NC(=O)OC(C)(C)C)CN2C(=O)COC[C@H]1C(=O)OCc1ccccc1` the ring closure, yield of all isomers ([1]; from CN(C(=O)c1cccc(OC[C@@H]2C[C@H](NC(=O)OC(C)(C)C)CN2)c1)[C@@H](COCC(=O)O)C(=O)OCc1ccccc1, FDPP, DMF, 5.2 mM) was 80%.

With `CN1CC[C@H](NC(=O)OCc2ccccc2)C(=O)N2C[C@@H](NC(=O)OCC[Si](C)(C)C)C[C@H]2COc2cccc(c2)C1=O` the ring closure, yield of all isomers ([1]; from CN(CC[C@H](NC(=O)OCc1ccccc1)C(=O)O)C(=O)c1cccc(OC[C@@H]2C[C@H](NC(=O)OCC[Si](C)(C)C)CN2)c1, FDPP, DMF, 0.97 mM) was 43%.

Compound `CC(C)(C)OC(=O)N[C@H]1C[C@H]2COc3cccc(c3)C(=O)NCCC[C@H](NC(=O)OCc3ccccc3)C(=O)N2C1` has a ring closure, yield of all isomers ([1]; from CC(C)(C)OC(=O)N[C@@H]1CN[C@H](COc2cccc(C(=O)NCCC[C@H](NC(=O)OCc3ccccc3)C(=O)O)c2)C1, T3P, i-Pr2NEt, CH2Cl2, 5.37 mM) of 71%.

`CN1C[C@H](NC(=O)OCc2ccccc2)C(=O)N(C)CC(=O)N2C[C@H](NC(=O)OCC[Si](C)(C)C)C[C@H]2COc2cccc(c2)C1=O` showed a ring closure, yield of all isomers ([1]; from CN(C[C@H](NC(=O)OCc1ccccc1)C(=O)N(C)CC(=O)O)C(=O)c1cccc(OC[C@@H]2C[C@@H](NC(=O)OCC[Si](C)(C)C)CN2)c1, FDPP, DMF, 10.16 mM) of 68%.

For `CN1C[C@@H](NC(=O)OCc2ccccc2)C(=O)N(C)CC(=O)N2C[C@@H](NC(=O)OC(C)(C)C)C[C@H]2COc2cccc(c2)C1=O`, the ring closure, yield of all isomers ([1]; from CNCC(=O)N1C[C@@H](NC(=O)OC(C)(C)C)C[C@H]1COc1cccc(C(=O)N(C)C[C@@H](NC(=O)OCc2ccccc2)C(=O)O)c1, FDPP, DMF, 1.0 mM, 60.0 °C, 20.0 h) was 78%.

In the case of `CN1CC(=O)N2C[C@H](NC(=O)OC(C)(C)C)C[C@H]2COc2ccc(cc2)C(=O)N(C)[C@H](C(=O)OCc2ccccc2)CCC1=O`, the ring closure, yield of all isomers ([1]; from CNCC(=O)N1C[C@H](NC(=O)OC(C)(C)C)C[C@H]1COc1ccc(C(=O)N(C)[C@@H](CCC(=O)O)C(=O)OCc2ccccc2)cc1, T3P, i-Pr2NEt, CH2Cl2, 1.05 mM, 3.0 h) is reported as 54%.

`CN1CCC[C@H](NC(=O)OCc2ccccc2)C(=O)N2C[C@@H](Cc3ccccc3)C[C@H]2COc2cccc(c2)C1=O` gave a ring closure, yield of all isomers ([1]; from CN(CCC[C@H](NC(=O)OCc1ccccc1)C(=O)O)C(=O)c1cccc(OC[C@@H]2C[C@H](Cc3ccccc3)CN2)c1, T3P, CH2Cl2, 4.5 mM, 25.0 °C, 0.5 h) of 37%.

Compound `CN1CCC(=O)N2C[C@H](NC(=O)OC(C)(C)C)C[C@H]2COc2ccc(F)cc2C(=O)N(C)[C@H](C(=O)OCc2ccccc2)CCC1=O` has a ring closure, yield of all isomers ([1]; from CNCCC(=O)N1C[C@H](NC(=O)OC(C)(C)C)C[C@H]1COc1ccc(F)cc1C(=O)N(C)[C@@H](CCC(=O)O)C(=O)OCc1ccccc1, T3P / i-Pr2NEt, CH2Cl2, 10.6 mM) of 82%.

In the case of `CN1CC(=O)N2C[C@@H](NC(=O)OC(C)(C)C)C[C@H]2COc2ccc(F)cc2C(=O)N(C)[C@@H](C(=O)OCc2ccccc2)CCC1=O`, the ring closure, yield of all isomers ([1]; from CNCC(=O)N1C[C@@H](NC(=O)OC(C)(C)C)C[C@H]1COc1ccc(F)cc1C(=O)N(C)[C@H](CCC(=O)O)C(=O)OCc1ccccc1, T3P / i-Pr2NEt, CH2Cl2, 10.8 mM) is reported as 92%.

With `CN1CC(=O)N2C[C@H](NC(=O)OC(C)(C)C)C[C@H]2COc2ccc(F)cc2C(=O)N(C)[C@H](C(=O)OCc2ccccc2)CCC1=O` the ring closure, yield of all isomers ([1]; from CNCC(=O)N1C[C@H](NC(=O)OC(C)(C)C)C[C@H]1COc1ccc(F)cc1C(=O)N(C)[C@@H](CCC(=O)O)C(=O)OCc1ccccc1, T3P, CH2Cl2, 10.5 mM, 25.0 °C, 20.0 h) was 87%.

In the case of `CN1C(=O)c2cc(F)ccc2OC[C@@H]2CN(C(=O)OC(C)(C)C)CCN2C(=O)CC[C@H]1C(=O)OCc1ccccc1`, the ring closure, yield of all isomers ([1]; from CN(C(=O)c1cc(F)ccc1OC[C@@H]1CN(C(=O)OC(C)(C)C)CCN1)[C@@H](CCC(=O)O)C(=O)OCc1ccccc1, T3P, CH2Cl2, 0.57 mM, 25.0 °C, 20.0 h) is reported as 77%.

Work on `Cc1c2c3cc(ccc3n1C)OC[C@@H]1C[C@@H](NC(=O)OC(C)(C)C)CN1C(=O)CN(C)C(=O)CC[C@@H](C(=O)OCc1ccccc1)N(C)C2=O` yielded a ring closure, yield of all isomers ([1]; from CNCC(=O)N1C[C@H](NC(=O)OC(C)(C)C)C[C@H]1COc1ccc2c(c1)c(C(=O)N(C)[C@@H](CCC(=O)O)C(=O)OCc1ccccc1)c(C)n2C, T3P, CH2Cl2, 9.85 mM) of 58%.

With `CN1CCC[C@H](NC(=O)OCc2ccccc2)C(=O)N2C[C@@H](NC(=O)OCC[Si](C)(C)C)C[C@H]2COc2cccc(c2)C1=O` the ring closure, yield of all isomers ([1]; from CN(CCC[C@H](NC(=O)OCc1ccccc1)C(=O)O)C(=O)c1cccc(OC[C@@H]2C[C@H](NC(=O)OCC[Si](C)(C)C)CN2)c1, T3P, CH2Cl2, 9.4 mM) was 54%.

In the case of `CN1CCCC[C@H](NC(=O)OCc2ccccc2)C(=O)N2C[C@@H](NC(=O)OC(C)(C)C)C[C@H]2COc2cncc(c2)C1=O`, the ring closure, yield of all isomers ([1]; from CN(CCCC[C@H](NC(=O)OCc1ccccc1)C(=O)O)C(=O)c1cncc(OC[C@@H]2C[C@H](NC(=O)OC(C)(C)C)CN2)c1, T3P, CH2Cl2, 4.78 mM) is reported as 79%.

Work on `CC(C)(C)OC(=O)N[C@@H]1C[C@H]2COc3ccc(Br)cc3C(=O)NC3(CCCC3)C(=O)N[C@@H](Cc3ccc4ccccc4c3)CC(=O)N2C1` yielded a ring closure, yield of all isomers ([1]; from CC(C)(C)OC(=O)N[C@H]1CN[C@H](COc2ccc(Br)cc2C(=O)NC2(C(=O)N[C@H](CC(=O)O)Cc3ccc4ccccc4c3)CCCC2)C1, T3P, i-Pr2NEt, CH2Cl2, 1.0 mM, 25.0 °C, 2.0 h) of 68%.

Work on `CN1CC(=O)N2C[C@@H](NC(=O)OCC[Si](C)(C)C)C[C@H]2COc2cccc3c2C[C@@](NC(=O)OC(C)(C)C)(CC3)C(=O)N(C)C[C@H](NC(=O)OCc2ccccc2)C1=O` yielded a ring closure, yield of all isomers ([1]; from CN(CC(=O)O)C(=O)[C@H](CN(C)C(=O)[C@]1(NC(=O)OC(C)(C)C)CCc2cccc(OC[C@@H]3C[C@H](NC(=O)OCC[Si](C)(C)C)CN3)c2C1)NC(=O)OCc1ccccc1, T3P, i-Pr2NEt, CH2Cl2, 10.0 mM, 2.0 h) of 44%.

For `CN1C[C@H](NC(=O)OCc2ccccc2)C(=O)N(C)CC(=O)N2C[C@@H](NC(=O)OCC[Si](C)(C)C)C[C@H]2COc2cccc(c2)C1=O`, the ring closure, yield of all isomers ([1]; from CN(C[C@H](NC(=O)OCc1ccccc1)C(=O)N(C)CC(=O)O)C(=O)c1cccc(OC[C@@H]2C[C@H](NC(=O)OCC[Si](C)(C)C)CN2)c1, FDPP, DMF, 9.73 mM) was 63%.

Source: patent publication US9512139B2, “Conformationally constrained, fully synthetic macrocyclic compounds” (POLYPHOR AG, priority 2009, dated 2016)
